Results taken from patent US9096538B2, “Pharmaceutical comprising PPAR agonist” (Senju Pharmaceutical Co., Ltd., priority 2005, dated 2015).

What was measured:
corneal epithelial wound = assay: Test Example 9: healing of corneal epithelial wound after corneal epithelium scraping, eyedrop; format: in vivo, rabbit; conditions: 0.05% eyedrop; for ratio (%) of remaining corneal epithelial defect: initial value = 100%, average ± standard deviation, N = 4
Description: A male rabbit (Japanese white, […] LABES Co., Ltd.) was used. The experimental animal was used according to the International Guiding Principles for Biomedical Research Involving Animals.
As the test substance, a PPARδ agonist GW-501516 (Alexis Biochemicals) was used. A solution in which GW-501516 was suspended in the following vehicle to 0.05% was used as an eyedrop solution.
As a control for the test substance administration group, the aforementioned vehicle administration group containing no drug was set.
After the animal was subjected to systemic anesthesia by intramuscular injection (0.9 mL/kg) with a selactar (2% xylazine: Bayer): ketalar (5% ketamine: Sankyo)=0.5:1 mixed solution, an oxybuprocaine hydrochloride eyedrop solution (Benoxil eyedrop solution 0.4%; Santen Pharmaceutical Co., Ltd.) was administered, and eyeballs were exposed. A mark having a diameter of 6 mm was stamped on a corneal epithelium at a corneal central part using a trephine having a diameter of 6 mm, and a whole corneal epithelial layer within a stamped circumference was scraped using a handy rooter under a stereomicroscope. After scraping, a corneal surface was washed using physiological saline (Otsuka Pharmaceutical Factory Inc.), and eyeballs were returned into the orbit to complete the corneal epithelial scraping treatment.
A test substance eyedrop solution or an eyedrop solution vehicle was administered to treated eyes at 50 μL per once using a micropipette two times a day on the corneal epithelium scraping day and, on the following day and thereafter, four times a day until completion of the test.
At the time point at which corneal epithelium scraping of both eyes of all individuals was completed was defined as the test initiation time (0 hour) and, by quantitating the corneal epithelial defect area at 24, 38 and 48 hours thereafter, restoration of a corneal epithelium was assessed. That is, at each time point, 10 μL of a 0.1% fluorescein sodium (Wako Pure Chemical Industries, Ltd.) solution was administered to treated eyes, a photograph of an anterior ocular segment of the animal was immediately taken using a slit lamp equipped with a cobalt filter and thereby, a stained corneal epithelial defect region was recorded. A developed photograph was stored as a digital image in a computer, and an area of the stained corneal epithelial defect part was measured using image analysis software (Image-Pro Plus).
Regarding the corneal epithelial defect area measured at each time point, a value for each individual was calculated, assuming that its initial value was 100%, and this was adopted as a ratio of the remaining corneal epithelial defect.

[1] = tested on: normal human corneal epithelial cell; assay: Test Example 6: increase in cell number, normal human corneal epithelial cell, 48 hours (Cell Counting Kit-8); format: cell-based; conditions: 10^−8 M, no addition group = 100%, average ± standard deviation, N = 4 to 5
Experimental: (§1) A normal human corneal epithelial cell (KURABO) was used.
As the test substance, the following compounds were used. • PPARδ Agonist: GW-501516 (Alexis), GW-0742 (Sigma-Aldrich)
Only basal medium (no addition group) • [2] Basal medium+GW-501516 (final concentration: 0.01 μM) • [3] Basal medium+GW-0742 (final concentration: 0.01 μM)

[2] = tested on: monkey meibomian gland epithelial cell; assay: Test Example 8: increase in number of monkey meibomian gland epithelial cells (Cell Counting Kit-8); format: cell-based; conditions: 3 x 48 hours; for Cell proliferation (%): no addition group = 100%, average ± standard deviation, N = 5
Description: For studying the effect of promoting cell proliferation by each test substance, a culture medium prepared by removing the supplement attached to DK-SFM, from DK-SFM, was used as a basal medium, while as a positive control for confirming the cell proliferation promoting effect, a culture medium with the supplement added thereto (basal medium+supplement) was used according to instructions of an DK-SFM preparation protocol. […] In the test, a monkey meibomian gland epithelial cell which had been cultured to subconfluent, suspended in a cell banker (Nippon Zenyaku Kogyo Co., Ltd.), and cryopreserved in liquid nitrogen was used. The cell which had been cryopreserved was thawed, and transferred to a 50 mL centrifuge tube and a 10-fold amount of DK-SFM was added thereto. […] Each 64 μL of this cell suspension was dispensed into each well so that the cell number per bottom area (0.32 cm^2) of the collagen-treated 96-well culture dish for tissue culture became 4×10^4 cells/cm^2. […] After 48 hours from initial culture medium exchange, the culture medium was exchanged with a freshly prepared culture medium of each of [1] to [4]. Further, after 48 hours therefrom, the culture medium was exchanged again with a freshly prepared culture medium of each of [1] to [4].

[3] = tested on: normal human corneal epithelial cell; assay: Test Example 5: increase in cell number, normal human corneal epithelial cell, 24 hours (Cell Counting Kit-8); format: cell-based; conditions: no addition group = 100%, average ± standard deviation, N = 3 to 4
Experimental: as §1
As the test substance, the following compounds were used. PPARδ agonist: L-165041 (Sigma-Aldrich), GW-501516 (Alexis)
In addition, as a positive control for confirming the cell proliferation promoting effect, a medium in which a mouse-derived epithelial growth factor (mEGF) contained in an HCGS proliferation additive set (KURABO) was added to a basal medium (basal medium+1 ng/mL mEGF) was used.
This cell suspension was seeded on a fibronectin-coated multiwell plate (24 well, BECTON DICKINSON) so that the cell number became 2×10^4 cells/500 μL/well (since the bottom area is 2 cm^2, the number is 1×10^4 cells/cm^2).
Further, 24 hours thereafter, the culture medium was exchanged with each 400 μL of the following culture media. • [1] Only basal medium (no addition group) • [2] Basal medium+mEGF (final concentration: 1 ng/mL; positive control group) • [3] Basal medium+L-165041 (final concentration: 0.01 μM and 0.1 μM) • [4] Basal medium+GW-501516 (final concentration: 0.001 μM and 0.01 μM)

[4] = tested on: rabbit corneal epithelial cell; assay: Test Example 2: increase in cell number, cultured rabbit corneal epithelial cell, 120 hours (Cell Counting Kit-8); format: cell-based; conditions: no addition group = 100%, average ± standard deviation, N = 5
Experimental: A male rabbit (Japanese white, weight: about 1.5 kg, […] LABES Co., Ltd.) was used. The experimental animal was used according to the International Guiding Principles for Biomedical Research Involving Animals.
A rabbit corneal epithelial cell was prepared using the same process as that of (Test example 1).
As the test substance, the following compounds were used. • PPARδ agonist: L-165041 (Sigma-Aldrich) and GW-501516 (Alexis)
For studying the effect of promoting cell proliferation by each test substance, a culture medium prepared by removing a mouse-derived epithelial growth factor (mEGF) attached to RCGM2, from RCGM2, was used as a basal medium, while as a positive control for confirming the effect of promoting cell proliferation, a medium with an mEGF added thereto (basal medium+10 ng/mL mEGF) was used according to instructions of an RCGM2 preparation protocol.
Collagen treatment of the culture dish was performed using the same process as that of (Test Example1).
In the test, a rabbit corneal epithelial cell which had been cultured to subconfluent in a culture dish having a diameter of 10 cm was used. After the culture medium was removed, the bottom of the culture dish was washed two times using D-PBS, to this was added 1 mL of trypsin-EDTA, this was incubated at 37° C. for 5 minutes and thereby, the cell was peeled from the bottom of the culture dish. After incubation, 9 mL of MEM containing 10% FBS was added to the culture dish to stop the enzymatic reaction, and this was subjected to centrifugation at room temperature and 1,500 rpm for 5 minutes to obtain a corneal epithelial cell layer. To the resulting cell was added an appropriate amount of RCGM2 to a cell concentration of 1×10^5 cells/mL to suspend the cell. Each 64 μL of this cell suspension was dispensed in each well at the cell number per bottom area (0.32 cm^2) of the collagen-treated 96-well culture dish for tissue culture of […]. […] After 24 hours from cell seeding, the culture medium was discarded, and each 100 μL of the following culture media were freshly dispensed into each well of the culture dish. • [1] Only basal medium (no addition group) • [2] Basal medium+mEGF (final concentration: 10 ng/mL; positive control group) • [3] Basal medium+L-165041 (final concentration: 0.1 μM and 1 μM) • [4] Basal medium+GW-501516 (final concentration: 0.01 μM and 0.1 μM)
The culture supernatant of each well was removed every 48 hours from exchange of the culture medium containing a test substance, and each 100 μL of the freshly prepared culture medium was dispensed into each well.

Cc1cc(SCc2sc(-c3ccc(C(F)(F)F)cc3)nc2C)ccc1OCC(=O)O [GW-501516, (2-methyl-4-(((4-methyl-2-(4-(trifluoromethyl)phenyl)-5-thiazolyl)methyl)thio)phenoxy)acetic acid]
ratio (%) of remaining corneal epithelial defect (corneal epithelial wound; 0 hour (initial value)): 100.0 ± 6.5%
ratio of the corneal epithelial defect compared to vehicle (in words) (corneal epithelial wound; 24 hours and 38 hours after corneal epithelium scraping): significantly decreased
ratio (%) of remaining corneal epithelial defect (corneal epithelial wound; 24 hours later, 50 μL): 25.3 ± 3.1 %
ratio (%) of remaining corneal epithelial defect (corneal epithelial wound; 38 hours later, 50 μL): 0.2 ± 0.2 %
corneal epithelial defect (in words) (corneal epithelial wound; after 48 hours, all individuals (vehicle group too)): disappeared in all individuals
Cell proliferation (%) [1]: 129.2 ± 7.5%
cell proliferation compared to the no addition group (in words) ([2]; 10^−7 M): significantly higher than in the no addition group
Cell proliferation (%) ([2]; 10^−7 M): 156.1 ± 18.9%
Cell proliferation (%) ([2]; 10^−8 M): 133.3 ± 7.4%
Cell proliferation (%) ([3]; 10^−8 M): 125.7 ± 2.3%
Cell proliferation (%) ([3]; 10^−9 M): 133.1 ± 3.7%
Cell proliferation (%) ([4]; 10^−7 M): 213.2 ± 34.0%
Cell proliferation (%) ([4]; 10^−8 M): 223.9 ± 24.1%
